Data as given in patent US11364246B2, “Compounds” (TMEM16A Limited, priority 2019, dated 2022).

Molecular target: human TMEM16A (Homo sapiens, UniProt Q5XXA6)
Experiment: Automated whole-cell patch clamp (Qpatch) assay to detect TMEM16A activity in recombinant cells
Assay type: cell-based
Details: 3.33 μM test compound; % increase of baseline TMEM16A current; FRT cells stably expressing human TMEM16A (TMEM16Aabc variant); intracellular calcium at EC20
Procedure: Automated Whole-Cell Patch Clamp Assay to Detect TMEM16A Activity in Recombinant Cells
Fisher rat thyroid (FRT) cells stably expressing human TMEM16A (TMEM16Aabc variant; Dr Luis Galietta, Insituto Giannina, Italy) were cultured in T-75 flasks in Hams F-12 media with Coon's modification (Sigma) supplemented with 10% (v/v) foetal bovine serum, penicillin-streptomycin (10,000 U/mL/10000 pg/mL), G-418 (750 pg/mL), L-glutamine (2 mM) and sodium bicarbonate solution (7.5% v/v). At −90% confluence cells were harvested for experiments by detachment with a 2:1 (v/v) mixture of Detachin (BMS Biotechnology) and 0.25% (w/v) trypsin-EDTA. Cells were diluted to a density of 3.5-4.5×10^6 cells/mL with media consisting of CHO-S-SFM (Sigma), 25 mM HEPES (Sigma) and Soy bean trypsin inhibitor (Sigma).
FRT-TMEM16A cells were whole-cell patch clamped using an automated planar patch clamp system (Qpatch, Sophion). Briefly, once high resistance (GOhm) seals were established between the cells and the planar recording array the patch was ruptured using suction pulses to establish the whole-cell recording configuration of the patch clamp technique. The assay employed the following solutions (all reagents Sigma): Intracellular solution (mM): N-methyl-D-glucamine 130, CaCh 18.2, MgCh 1. HEPES 10, EGTA 10, BAPTA 20, Mg-ATP 2, pH 7.25, 325 mOsm with sucrose.
Extracellular solution (mM): N-methyl-D-glucamine 130, CaCl2 2, MgCh 1, HEPES 10, pH 7.3, 320 mOsm with sucrose.
The intracellular solution buffers intracellular calcium at levels required to give −20% activation of the maximal TMEM16A mediated current (EC20 for calcium ions). Cells were voltage clamped at a holding potential of −70 mV and a combined voltage step (to +70 mV)/ramp (−90 my to +90 mV) was applied at 0.05 Hz. After a period of current stabilisation test compounds, solubilised in 100% (v/v) DMSO and subsequently diluted into extracellular solution, were applied to generate a cumulative concentration response curve. Each concentration of test compound was incubated for 5 minutes before addition of the next concentration. After the final concentration was tested a supramaximal concentration of either a known active positive modulator or the TMEM16A inhibitor. CaCCinhAOI (Del La Fuente et al, 2008) was added to define the upper and lower limits of the assay.
Compound activity was quantified by measuring the increase in current upon compound addition and expressing this as a percentage increase of baseline TMEM16A current level. […]
Peak TMEM16A current at +70 mV was plotted as a function of time over the assay period. Baseline current (IBL) was measured after a period of stabilisation. The increase in current for each compound addition was determined by taking the peak current during the incubation period and subtracting the current from the previous recording period and then expressing this as a percentage of the baseline current. […]
For each additional concentration tested the increase in current was determined by subtracting the current from the previous incubation period and normalising the baseline value—for test concentration 2 in FIG. 1 this is: (I[#2]−I[# ? /IBL)×100
The values for each test concentration were plotted as a cumulative function of concentration eg. for test concentration two this would be the sum of the peak changes measured during concentration one plus concentration two.

Compound	% Potentiation @ 3.33 μM Avg [%]
O=C(Cc1cc(Cl)ccc1O)Nc1ccnc(C(=O)NC23CCC(F)(C2)C3)c1 [Example 44, 4-[[2-(5-Chloro-2-hydroxy-phenyl)acetyl]amino]-N-(4-fluoro-1-bicyclo[2.1.1]hexanyl)pyridine-2-carboxamide]	1
CC(C)(C)NC(=O)c1cc(NC(=O)[C@@H]2CCc3ccccc32)ccn1 (single isomer, unassigned) [Example 21a, N-tert-Butyl-4-[[(1R)-indane-1-carbonyl]amino]pyridine-2-carboxamide or N-tert-Butyl-4-[[(1S)-indane-1-carbonyl]amino]pyridine-2-carboxamide]	99
O=C(Cc1cc(Cl)ccc1O)Nc1ccnc(C(=O)N[C@@]2(CO)CCOC2)c1 (single isomer, unassigned) [Example 35b, 4-[[2-(5-Chloro-2-hydroxy-phenyl)acetyl]amino]-N-[(3R)-3-(hydroxymethyl)tetrahydrofuran-3-yl]pyridine-2-carboxamide or 4-[[2-(5-chloro-2-hydroxy-phenyl)acetyl]amino]-N-[(3S)-3-(hydroxymethyl)tetrahydrofuran-3-yl]pyridine-2-carboxamide]	190
CC(C)(C)NC(=O)c1cc(NC(=O)C2(c3cccc(Cl)c3)CC2)ccn1 [Example 5.31, N-tert-butyl-4-[[1-(3-chlorophenyl)cyclopropanecarbonyl]amino]pyridine-2-carboxamide]	145
C#CC(C)(C)NC(=O)c1cc(NC(=O)Cc2cccc3cc[nH]c23)ccn1 [Example 79.3, N-(1,1-Dimethylprop-2-ynyl)-4-[[2-(1H-indol-7-yl)acetyl]amino]pyridine-2-carboxamide]	64
